Measured values taken from ChEMBL document CHEMBL4477250, “Discovery of novel potent imidazo[1,2-b]pyridazine PDE10a inhibitors” (Bioorg Med Chem Lett, 2016).
Calls of active or inactive are those of the source. No cut-off for these calls is given here.

Legend:
Pancreatic islet [1] = assay: Induction of insulin secretion in human pancreatic islets at 1 uM in presence of glucose; assay type: functional, cell-based
[2] = target: cAMP and cAMP-inhibited cGMP 3',5'-cyclic phosphodiesterase 10A (Homo sapiens, UniProt Q9Y233); assay: Inhibition of human recombinant full length PDE10A expressed in sf9 cells by scintillation proximity assay
Pancreatic islet [3] = assay: Induction of insulin secretion in human pancreatic islets at 2 to 12 mM; assay type: functional, cell-based
[4] = Ratio of drug level in brain to plasma (unknown origin) after 2 hrs; assay type: ADME; details: brain and plasma; read-out: BPR
Pancreatic islet [5] = assay: Induction of insulin secretion in human pancreatic islets at 30 mM in presence of glucose; assay type: functional, cell-based
Pancreatic islet [6] = assay: Induction of insulin secretion in human pancreatic islets at 15 mM in presence of glucose; assay type: functional, cell-based
[7] = target: Dual specificity calcium/calmodulin-dependent 3',5'-cyclic nucleotide phosphodiesterase 1B (Homo sapiens, UniProt Q01064); assay: Inhibition of human PDE1B
[8] = target: cGMP-dependent 3',5'-cyclic phosphodiesterase (Homo sapiens, UniProt O00408); assay: Inhibition of human PDE2A
[9] = target: cGMP-inhibited 3',5'-cyclic phosphodiesterase 3B (Homo sapiens, UniProt Q13370); assay: Inhibition of human PDE3B
[10] = target: 3',5'-cyclic-AMP phosphodiesterase 4D (Homo sapiens, UniProt Q08499); assay: Inhibition of human PDE4D
[11] = target: cGMP-specific 3',5'-cyclic phosphodiesterase (Homo sapiens, UniProt O76074); assay: Inhibition of human PDE5A
[12] = target: High affinity 3',5'-cyclic-AMP phosphodiesterase 7A (Homo sapiens, UniProt Q13946); assay: Inhibition of human PDE7A
[13] = target: High affinity cGMP-specific 3',5'-cyclic phosphodiesterase 9A (Homo sapiens, UniProt O76083); assay: Inhibition of human PDE9A
[14] = target: 3',5'-cyclic phosphodiesterase; assay: Inhibition of human PDE; assay type: protein assay
Homo sapiens [15] = organism: Homo sapiens; assay: Selectivity ratio of IC50 for human PDE1B to IC50 for human recombinant full length PDE10A expressed in sf9 cells
Homo sapiens [16] = organism: Homo sapiens; assay: Selectivity ratio of IC50 for human PDE2A to IC50 for human recombinant full length PDE10A expressed in sf9 cells
Homo sapiens [17] = organism: Homo sapiens; assay: Selectivity ratio of IC50 for human PDE3B to IC50 for human recombinant full length PDE10A expressed in sf9 cells
Homo sapiens [18] = organism: Homo sapiens; assay: Selectivity ratio of IC50 for human PDE4D to IC50 for human recombinant full length PDE10A expressed in sf9 cells
Homo sapiens [19] = organism: Homo sapiens; assay: Selectivity ratio of IC50 for human PDE5A to IC50 for human recombinant full length PDE10A expressed in sf9 cells
Homo sapiens [20] = organism: Homo sapiens; assay: Selectivity ratio of IC50 for human PDE7A to IC50 for human recombinant full length PDE10A expressed in sf9 cells
Homo sapiens [21] = organism: Homo sapiens; assay: Selectivity ratio of IC50 for human PDE9A to IC50 for human recombinant full length PDE10A expressed in sf9 cells
Cytochrome P450 3A4 = Cytochrome P450 3A4 (Homo sapiens, UniProt P08684); assay: Inhibition of recombinant CYP3A4 (unknown origin); assay type: ADME
Cytochrome P450 2C9 = Cytochrome P450 2C9 (Homo sapiens, UniProt P11712); assay: Inhibition of recombinant CYP2C9 (unknown origin); assay type: ADME
Cytochrome P450 2C19 = Cytochrome P450 2C19 (Homo sapiens, UniProt P33261); assay: Inhibition of recombinant CYP2C19 (unknown origin); assay type: ADME
Cytochrome P450 2D6 = Cytochrome P450 2D6 (Homo sapiens, UniProt P10635); assay: Inhibition of recombinant CYP2D6 (unknown origin); assay type: ADME
Cytochrome P450 1A2 = target: T1, Cytochrome P450 1A2 (Homo sapiens, UniProt P05177); assay: Inhibition of recombinant CYP1A2 (unknown origin); assay type: ADME
T1 sequence (P05177 whole entry): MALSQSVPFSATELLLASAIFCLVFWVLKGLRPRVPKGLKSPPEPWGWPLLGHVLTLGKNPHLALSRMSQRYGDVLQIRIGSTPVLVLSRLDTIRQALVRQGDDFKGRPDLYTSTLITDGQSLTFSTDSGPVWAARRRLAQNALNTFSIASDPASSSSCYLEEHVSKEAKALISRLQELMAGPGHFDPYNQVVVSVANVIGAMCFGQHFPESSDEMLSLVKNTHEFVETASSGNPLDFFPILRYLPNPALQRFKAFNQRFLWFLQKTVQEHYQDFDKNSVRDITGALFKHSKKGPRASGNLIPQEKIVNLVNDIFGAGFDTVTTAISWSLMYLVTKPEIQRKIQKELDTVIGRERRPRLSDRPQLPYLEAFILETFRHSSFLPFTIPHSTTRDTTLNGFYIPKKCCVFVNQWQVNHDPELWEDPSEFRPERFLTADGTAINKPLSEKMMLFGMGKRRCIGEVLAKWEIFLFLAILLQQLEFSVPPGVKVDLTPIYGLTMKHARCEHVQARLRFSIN

[22] = Stability in human liver microsomes; assay type: ADME, Microsome
[23] = Stability in rat liver microsomes; assay type: ADME, Microsome
[24] = Stability in dog liver microsomes; assay type: ADME, Canis lupus familiaris, Microsome
[25] = Stability in mouse liver microsomes; assay type: ADME, Microsome
[26] = Oral bioavailability in rat at 10 mg/kg; assay type: ADME, organism-based; details: in vivo
[27] = Cardiotoxicity in anesthetized guinea pig; assay type: toxicity, Cavia porcellus
[28] = target: Voltage-gated inwardly rectifying potassium channel KCNH2 (Homo sapiens, UniProt Q12809); assay: Inhibition of human ERG
[29] = Stability in cynomolgus monkey liver microsomes; assay type: ADME, Macaca fascicularis, Microsome
[30] = Clearance in rat at 10 mg/kg; assay type: ADME, organism-based; details: in vivo
[31] = Half life in rat at 10 mg/kg, iv; assay type: ADME, organism-based; details: in vivo
[32] = Cmax in rat at 10 mg/kg; assay type: ADME, organism-based; parameters: dose 10 mg/kg; details: in vivo
[33] = Volume of distribution in steady state in rat at 10 mg/kg; assay type: ADME, organism-based; details: in vivo, read-out: Vdss
Rattus norvegicus [34] = organism: Rattus norvegicus; assay: Induction of insulin secretion in rat pancreatic islets at 0.1 to 3 uM in presence of 3 mM glucose; assay type: functional
Rattus norvegicus [35] = organism: Rattus norvegicus; assay: Induction of insulin secretion in rat pancreatic islets at 0.1 to 3 uM in presence of 12 mM glucose; assay type: functional
Rattus norvegicus [36] = assay: Antidiabetic activity in fasted Sprague-Dawley rat assessed as reduction in blood glucose level at 3 to 30 mg/kg, po administered 3 hrs prior to glucose challenge measured up to 2 hrs by OGTT; assay type: functional, organism-based
Mus musculus = assay: Antidiabetic activity in ob/ob mouse assessed as reduction in blood glucose level at 5 to 20 mg/kg, po administered 3 hrs prior to glucose challenge measured up to 2 hrs by OGTT; assay type: functional, organism-based

Chain of cAMP and cAMP-inhibited cGMP 3',5'-cyclic phosphodiesterase 10A (Q9Y233 whole entry): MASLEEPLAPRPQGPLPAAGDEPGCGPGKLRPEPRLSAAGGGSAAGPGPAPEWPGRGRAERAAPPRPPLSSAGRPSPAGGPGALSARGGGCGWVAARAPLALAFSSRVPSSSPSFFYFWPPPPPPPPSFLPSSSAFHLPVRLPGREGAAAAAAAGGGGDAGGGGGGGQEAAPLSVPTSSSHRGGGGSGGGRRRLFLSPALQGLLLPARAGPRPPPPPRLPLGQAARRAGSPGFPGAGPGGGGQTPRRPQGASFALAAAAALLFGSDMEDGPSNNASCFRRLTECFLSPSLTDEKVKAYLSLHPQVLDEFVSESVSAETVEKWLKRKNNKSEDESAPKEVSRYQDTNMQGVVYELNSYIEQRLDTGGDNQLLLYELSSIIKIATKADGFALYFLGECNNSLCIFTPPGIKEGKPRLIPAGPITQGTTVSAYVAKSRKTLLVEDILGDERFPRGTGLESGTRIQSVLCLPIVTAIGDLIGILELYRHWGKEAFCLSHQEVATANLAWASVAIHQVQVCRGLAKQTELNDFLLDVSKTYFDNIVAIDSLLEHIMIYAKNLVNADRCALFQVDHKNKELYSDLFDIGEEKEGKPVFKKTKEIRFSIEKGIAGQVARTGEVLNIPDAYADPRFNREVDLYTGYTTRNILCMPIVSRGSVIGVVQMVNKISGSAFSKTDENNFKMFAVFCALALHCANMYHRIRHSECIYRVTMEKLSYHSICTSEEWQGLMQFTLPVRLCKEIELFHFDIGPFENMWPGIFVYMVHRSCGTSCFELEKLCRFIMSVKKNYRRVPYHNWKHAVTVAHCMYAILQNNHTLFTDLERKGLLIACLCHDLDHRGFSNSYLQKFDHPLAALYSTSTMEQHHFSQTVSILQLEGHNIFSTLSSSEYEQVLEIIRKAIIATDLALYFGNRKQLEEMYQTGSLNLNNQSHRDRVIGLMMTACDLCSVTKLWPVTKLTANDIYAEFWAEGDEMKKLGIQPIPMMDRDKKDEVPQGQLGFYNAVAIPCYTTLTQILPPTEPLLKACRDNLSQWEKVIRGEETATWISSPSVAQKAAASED
Chain of Dual specificity calcium/calmodulin-dependent 3',5'-cyclic nucleotide phosphodiesterase 1B (Q01064 whole entry): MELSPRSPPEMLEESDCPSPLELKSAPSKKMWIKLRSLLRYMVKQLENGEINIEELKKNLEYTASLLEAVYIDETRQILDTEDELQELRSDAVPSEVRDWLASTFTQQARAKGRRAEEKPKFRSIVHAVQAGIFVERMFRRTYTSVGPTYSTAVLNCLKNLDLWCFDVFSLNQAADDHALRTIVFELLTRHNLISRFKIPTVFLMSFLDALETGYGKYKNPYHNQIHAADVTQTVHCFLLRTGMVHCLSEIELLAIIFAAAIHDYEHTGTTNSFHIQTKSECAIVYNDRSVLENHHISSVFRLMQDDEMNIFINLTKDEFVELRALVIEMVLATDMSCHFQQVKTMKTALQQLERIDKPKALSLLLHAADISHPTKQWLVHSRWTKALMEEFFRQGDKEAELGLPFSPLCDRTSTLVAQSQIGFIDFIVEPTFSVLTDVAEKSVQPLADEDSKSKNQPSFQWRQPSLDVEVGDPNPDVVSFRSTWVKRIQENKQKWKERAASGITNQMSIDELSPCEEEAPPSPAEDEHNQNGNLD
Chain of cGMP-inhibited 3',5'-cyclic phosphodiesterase 3B (Q13370 whole entry): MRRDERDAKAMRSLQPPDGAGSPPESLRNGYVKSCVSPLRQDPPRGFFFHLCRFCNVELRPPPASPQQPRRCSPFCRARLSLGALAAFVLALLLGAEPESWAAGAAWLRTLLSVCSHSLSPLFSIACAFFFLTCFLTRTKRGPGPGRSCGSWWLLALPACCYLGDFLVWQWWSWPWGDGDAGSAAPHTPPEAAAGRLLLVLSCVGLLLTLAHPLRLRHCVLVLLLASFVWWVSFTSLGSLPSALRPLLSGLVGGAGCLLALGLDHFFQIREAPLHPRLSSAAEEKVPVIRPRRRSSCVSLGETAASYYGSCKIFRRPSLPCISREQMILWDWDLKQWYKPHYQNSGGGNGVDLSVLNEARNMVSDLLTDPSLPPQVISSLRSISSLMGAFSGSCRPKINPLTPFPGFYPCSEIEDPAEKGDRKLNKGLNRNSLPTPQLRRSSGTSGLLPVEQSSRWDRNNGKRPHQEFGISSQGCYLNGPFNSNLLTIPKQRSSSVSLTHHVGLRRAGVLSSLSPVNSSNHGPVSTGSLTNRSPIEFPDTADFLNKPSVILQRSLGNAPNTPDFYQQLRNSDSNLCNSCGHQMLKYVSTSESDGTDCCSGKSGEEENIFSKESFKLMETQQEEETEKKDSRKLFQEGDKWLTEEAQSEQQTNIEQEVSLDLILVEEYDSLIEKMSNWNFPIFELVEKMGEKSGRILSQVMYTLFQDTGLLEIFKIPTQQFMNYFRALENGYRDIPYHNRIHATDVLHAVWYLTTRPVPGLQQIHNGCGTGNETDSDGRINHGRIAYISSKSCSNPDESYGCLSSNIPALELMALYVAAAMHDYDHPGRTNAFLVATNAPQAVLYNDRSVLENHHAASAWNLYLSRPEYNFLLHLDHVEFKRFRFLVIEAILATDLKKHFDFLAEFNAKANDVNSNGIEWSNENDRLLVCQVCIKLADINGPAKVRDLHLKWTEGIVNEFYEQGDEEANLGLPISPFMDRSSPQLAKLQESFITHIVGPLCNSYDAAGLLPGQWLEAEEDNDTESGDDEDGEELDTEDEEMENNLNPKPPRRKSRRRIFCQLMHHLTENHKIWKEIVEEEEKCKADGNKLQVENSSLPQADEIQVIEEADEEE
Chain of Cytochrome P450 2D6 (P10635 whole entry): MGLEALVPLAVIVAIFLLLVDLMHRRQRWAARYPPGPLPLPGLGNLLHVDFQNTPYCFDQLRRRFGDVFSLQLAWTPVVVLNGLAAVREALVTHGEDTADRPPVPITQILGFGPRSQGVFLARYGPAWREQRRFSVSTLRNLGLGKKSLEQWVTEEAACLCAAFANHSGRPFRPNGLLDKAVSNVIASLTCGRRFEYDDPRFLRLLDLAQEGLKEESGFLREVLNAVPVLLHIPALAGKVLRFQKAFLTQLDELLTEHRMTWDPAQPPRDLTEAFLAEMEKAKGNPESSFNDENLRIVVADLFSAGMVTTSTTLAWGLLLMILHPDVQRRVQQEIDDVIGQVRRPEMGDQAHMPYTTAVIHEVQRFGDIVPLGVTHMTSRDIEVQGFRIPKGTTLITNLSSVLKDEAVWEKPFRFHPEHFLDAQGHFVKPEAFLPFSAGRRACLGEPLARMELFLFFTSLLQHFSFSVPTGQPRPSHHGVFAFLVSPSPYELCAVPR
Chain of cGMP-dependent 3',5'-cyclic phosphodiesterase (O00408 whole entry): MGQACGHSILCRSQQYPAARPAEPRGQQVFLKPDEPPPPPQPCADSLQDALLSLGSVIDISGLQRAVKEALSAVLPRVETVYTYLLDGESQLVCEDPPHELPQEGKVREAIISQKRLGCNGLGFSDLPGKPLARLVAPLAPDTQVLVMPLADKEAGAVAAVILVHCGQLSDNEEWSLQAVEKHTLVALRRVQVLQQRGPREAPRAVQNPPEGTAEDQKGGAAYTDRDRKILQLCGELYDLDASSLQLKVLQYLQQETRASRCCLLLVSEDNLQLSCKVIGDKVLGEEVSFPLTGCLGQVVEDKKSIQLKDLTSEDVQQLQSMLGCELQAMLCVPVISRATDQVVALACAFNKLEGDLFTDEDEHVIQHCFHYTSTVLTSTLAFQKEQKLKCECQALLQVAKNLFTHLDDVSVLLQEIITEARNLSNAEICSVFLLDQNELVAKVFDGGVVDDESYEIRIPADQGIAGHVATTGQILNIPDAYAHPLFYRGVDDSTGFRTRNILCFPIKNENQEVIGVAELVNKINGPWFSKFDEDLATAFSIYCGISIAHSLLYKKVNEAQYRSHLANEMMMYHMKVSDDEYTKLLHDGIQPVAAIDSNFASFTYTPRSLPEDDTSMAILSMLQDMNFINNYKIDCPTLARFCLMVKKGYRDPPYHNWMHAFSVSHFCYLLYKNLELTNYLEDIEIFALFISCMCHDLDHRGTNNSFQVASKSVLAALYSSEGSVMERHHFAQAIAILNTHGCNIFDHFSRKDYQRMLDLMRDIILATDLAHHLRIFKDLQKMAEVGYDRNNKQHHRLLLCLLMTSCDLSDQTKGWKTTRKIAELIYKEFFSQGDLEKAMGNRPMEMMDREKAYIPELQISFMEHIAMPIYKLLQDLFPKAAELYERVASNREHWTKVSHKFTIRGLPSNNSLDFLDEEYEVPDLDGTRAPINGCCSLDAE
Chain of High affinity 3',5'-cyclic-AMP phosphodiesterase 7A (Q13946 whole entry): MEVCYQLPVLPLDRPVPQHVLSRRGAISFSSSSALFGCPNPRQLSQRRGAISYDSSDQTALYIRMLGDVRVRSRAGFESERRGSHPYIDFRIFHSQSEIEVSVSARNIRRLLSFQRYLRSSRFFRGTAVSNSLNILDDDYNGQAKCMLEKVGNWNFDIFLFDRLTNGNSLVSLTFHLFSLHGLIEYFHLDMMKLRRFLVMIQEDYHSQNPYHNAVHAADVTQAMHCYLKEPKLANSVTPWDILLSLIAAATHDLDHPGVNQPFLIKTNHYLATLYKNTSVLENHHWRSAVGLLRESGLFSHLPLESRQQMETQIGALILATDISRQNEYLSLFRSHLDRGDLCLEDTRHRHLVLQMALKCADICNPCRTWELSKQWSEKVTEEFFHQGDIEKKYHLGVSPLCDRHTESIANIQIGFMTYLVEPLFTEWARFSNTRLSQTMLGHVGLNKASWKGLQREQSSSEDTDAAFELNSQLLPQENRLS

COc1ccc(Cl)cc1C(=O)NCCc1ccc(S(=O)(=O)NC(=O)NC2CCCCC2)cc1
Activity (Pancreatic islet [1]): Active

O=C(O)CCc1ccc(-c2c([C@H]3C[C@H](c4ccc5ccccc5n4)C3)nc3c(N4CCOCC4)ccnn23)cc1
IC50 [2]: 0.0024 µM

Oc1ncn(-c2ccc(-c3c(/C=C/c4ccc5ccccc5n4)nc4c(N5CCOCC5)ccnn34)cc2)n1
IC50 [2]: 0.0074 µM

O=C(O)c1ccc(-c2c(CCc3ccc4ccccc4n3)nc3c(N4CCOCC4)ccnn23)cc1
IC50 [2]: 0.0012 µM

OC[C@H]1OC(O)[C@H](O)[C@@H](O)[C@@H]1O (stereo partly specified)
Activity (Pancreatic islet [3]): Active

c1ccc2nc(SCc3nc4c(N5CCOCC5)ccnn4c3-c3ccc(N4CCNCC4)nc3)ccc2c1
Kp at 2 h [4]: 0.82

O=C(O)c1ccc(-c2c([C@H]3C[C@H](c4ccc5ccccc5n4)C3)nc3c(N4CCOCC4)ccnn23)cc1
IC50 [2]: 0.0006 µM

CC(=O)NS(=O)(=O)c1ccc(-c2c(/C=C/c3ccc4ccccc4n3)nc3c(N4CCOCC4)ccnn23)cc1
IC50 [2]: 0.0022 µM

[Cl-].[K+]
Activity (Pancreatic islet [5]): Active

N=C(N)NCCC[C@H](N)C(=O)O
Activity (Pancreatic islet [6]): Active

CS(=O)(=O)NC(=O)c1ccc(-c2c(C#Cc3ccc4ccccc4n3)nc3c(N4CCOCC4)ccnn23)cn1
IC50 [2]: 0.0021 µM
Kp at 2 h [4]: 0.01

c1ccc2nc(Cc3nc4c(N5CCOCC5)ccnn4c3-c3ccc(N4CCNCC4)nc3)ccc2c1
IC50 [2]: 0.123 µM
Kp at 2 h [4]: 0.45

O=C(O)c1ccc(-c2c(/C=C/c3ccc4ccccc4n3)nc3c(N4CCOCC4)ccnn23)cc1
IC50 [2]: 0.0015 to 0.002 µM
IC50 [7]: 6.6 µM
IC50 [8]: 5.9 µM
IC50 [9]: 6.6 µM
IC50 [10]: 4 µM
IC50 [11]: 5.4 µM
IC50 [12]: 4.2 µM
IC50 [13]: > 10 µM
IC50 [14]: 3 µM
Ratio IC50 (Homo sapiens [15]): 200
Ratio IC50 (Homo sapiens [16]): 200
Ratio IC50 (Homo sapiens [17]): 200
Ratio IC50 (Homo sapiens [18]): 200
Ratio IC50 (Homo sapiens [19]): 200
Ratio IC50 (Homo sapiens [20]): 200
Ratio IC50 (Homo sapiens [21]): 200
IC50 (Cytochrome P450 3A4): > 10 µM
IC50 (Cytochrome P450 2C9): > 10 µM
IC50 (Cytochrome P450 2C19): > 10 µM
IC50 (Cytochrome P450 2D6): > 10 µM
IC50 (Cytochrome P450 1A2): > 10 µM
Stability [22]: Stable
Stability [23]: Stable
Stability [24]: Stable
Stability [25]: Stable
bioavailability [26]: 44%
Activity [27]: Non-Toxic
inhibition (INH) [28]: Not Active
Stability [29]: Stable
clearance [30]: 0.198 L/h/kg
half-life [31]: 6 to 6.1 h
Cmax [32]: 2.99 µg/mL
Vd [33]: 0.47 L/kg
Activity (Rattus norvegicus [34]): inactive
Activity (Rattus norvegicus [35]): inactive
Activity (Pancreatic islet [1]): Active
Activity (Rattus norvegicus [36]): inactive
Activity (Mus musculus): inactive

O=C(O)C1CCN(c2ccc(-c3c([C@H]4C[C@H](c5ccc6ccccc6n5)C4)nc4c(N5CCOCC5)ccnn34)cc2)CC1
IC50 [2]: 0.0032 µM
Kp at 2 h [4]: 0.02

Oc1nc(O)c(-c2ccc(-c3c(/C=C/c4ccc5ccccc5n4)nc4c(N5CCOCC5)ccnn34)cc2)o1
IC50 [2]: 0.0085 µM
Kp at 2 h [4]: 0.01

O=C(O)C1CCN(c2ccc(-c3c(/C=C/c4ccc5ccccc5n4)nc4c(N5CCOCC5)ccnn34)cc2)CC1
IC50 [2]: 0.0044 µM
Kp at 2 h [4]: 0.02

O=c1[nH]c(-c2ccc(-c3c(/C=C/c4ccc5ccccc5n4)nc4c(N5CCOCC5)ccnn34)cc2)no1
IC50 [2]: 0.0033 µM

NS(=O)(=O)N1CCN(c2c(CSc3ccc4ccccc4n3)nc3c(N4CCOCC4)ccnn23)CC1
IC50 [2]: 0.0138 µM
Kp at 2 h [4]: 0.31
